Values of other authors as cited in patent US5670663A (priority 1996, dated 1997).

Key:
8A10 = conditions: monoclonal antibody 8A10
31-15 = conditions: antibody printed 31-15
3C6 = conditions: monoclonal antibody 3C6

For `CC(=O)O[C@@]12CO[C@@H]1C[C@H](O)[C@@]1(C)C(=O)[C@H](O)C3=C(C)[C@@H](O)C[C@@](O)([C@@H](OC(=O)c4ccccc4)[C@H]21)C3(C)C` [10-deacetylbaccatin III], the “cross reactivity with 8A10” value (8A10) is listed as “cross reacts”.

For `C/C=C(\C)C(=O)N[C@@H](c1ccccc1)[C@@H](O)C(=O)O[C@H]1C[C@@]2(O)[C@@H](OC(=O)c3ccccc3)[C@@H]3[C@]4(OC(C)=O)CO[C@@H]4C[C@H](O)[C@@]3(C)C(=O)[C@H](OC(C)=O)C(=C1C)C2(C)C` [Cephalomannine], the “cross reactivity with 8A10” value (8A10) is listed as “cross reacts”.

In the case of `CC(=O)O[C@H]1C(=O)[C@@]2(C)[C@H]([C@H](OC(=O)c3ccccc3)[C@]3(O)C[C@H](O)C(C)=C1C3(C)C)[C@]1(OC(C)=O)CO[C@@H]1C[C@@H]2O` [baccatin III], the “relative affinity of antibody for baccatin III and its 7-epi isomer baccatin V” value (31-15) is listed as “binds with equal affinity” and the “cross reactivity with 8A10” value (8A10) is listed as “cross reacts”.

In the case of `CC(=O)O[C@H]1C(=O)[C@]2(C)[C@H](O)C[C@H]3OC[C@@]3(OC(C)=O)[C@H]2[C@H](OC(=O)c2ccccc2)[C@]2(O)C[C@H](O)C(C)=C1C2(C)C` [baccatin V], the “relative affinity of antibody for baccatin III and its 7-epi isomer baccatin V” value (31-15) is given as “binds with equal affinity”.

For `CC(=O)O[C@H]1C(=O)[C@@]2(C)[C@H]([C@H](OC(=O)c3ccccc3)[C@]3(O)C[C@H](OC(=O)[C@H](O)[C@@H](NC(=O)c4ccccc4)c4ccccc4)C(C)=C1C3(C)C)[C@]1(OC(C)=O)CO[C@@H]1C[C@@H]2O` [paclitaxel], the “activity against breast, lung and other cancers” value (cancer; breast, lung and other cancers) is given as “shown activity”, the antitumor activity (cancer; general statement) is given as “significant antitumor activity” and the “reactivity with 3C6” value (3C6) is given as “specifically reactive”. For the same compound, the “cross reactivity with 8A10” value (8A10) was “cross reacts”.
